Test results: patent publication US20090192097A1, “Synergistic Herbal Composition from Bacopa Species for Management of Neurodegenerative Disorders and a Process of Preparation Thereof” (priority 2006, published 2009)

What was measured:
albino Swiss mice [1] = assay: Passive avoidance test in mice; format: in vivo, mouse; conditions: compared to the vehicle control; BacoMind 40, 60 and 80 mg/kg p.o. 7 days; piracetam 100 mg/kg i.p.; scopolamine 0.3 mg/kg i.p.
Protocol: (§1) Forty two albino Swiss mice (20-22 g) of either sex obtained from National Toxicology Centre, Pune were used for the study. The animals were acclimatized for a week and maintained under standard laboratory conditions, given free access to feed (Source: Laboratory prepared) and water, ad libitum.
Six albino Swiss mice of either sex were randomly allotted to each group. Group I served as the vehicle control. Group II, III and IV received BacoMind™ orally at the doses of 40, 60 and 80 mg/kg for 7 days. Piracetam was administered to group V (100 mg/kg, i.p, single dose, on 7th day 20 min before first trial) and served as the reference standard control. Group VI was administered with scopolamine (0.3 mg/kg, i.p, single dose, on 7th day 20 min before first trial) and served as the amnesia control. Group VII was administered both with BacoMind™ (60 mg/kg, p.o, for 7 days) and scopolamine (0.3 mg/kg, i.p, single dose, on 7th day 30 min after BacoMind™ treatment). Mice were placed individually on the electric grid and allowed to explore for one minute. A stimulus of 20 V with AC current of 5 mA was given and latency to reach SFZ was recorded for three consecutive times and considered as basal reading. After 1 h of the first trial, each animal was placed on the electric grid again and the latency to reach SFZ and the mistakes (descents) the animal made in 15 min were recorded and considered as parameters for acquisition and retention respectively.

albino Swiss mice [2] = assay: Elevated plus maze (EPM) test in mice; format: in vivo, mouse; conditions: scopolamine 0.3 mg/kg i.p. single dose, compared to the vehicle control
Protocol: as §1
Six albino Swiss mice of either sex were randomly allotted to each group. Group I served as the vehicle control. […] Piracetam was administered to group V (100 mg/kg, i.p, single dose on 7th day, 30 min before recording transfer latency) and served as the reference standard control. Group VI was administered with scopolamine (0.3 mg/kg, i.p, single dose on 7th day, 30 min before recording transfer latency) and served as the amnesia control group. […] The mice were placed individually at the end of open arm of the EPM facing away from the center. The time taken by the mouse to move into the enclosed arm was noted as transfer latency (TL). The mice were treated with the test substance/drugs as shown in the study design. […] After determination of the TL, mice were allowed to explore the maze for 2 min and then transferred to their home cages. The TL was again measured after 24 h i.e on […]. The TL was expressed as inflexion ratio.

NC(=O)CN1CCCC1=O [piracetam, Piracetam]
latency to reach SFZ (albino Swiss mice [1]): significantly decreased | number of mistakes in 15 min (albino Swiss mice [1]): significantly decreased

CN1[C@@H]2C[C@@H](OC(=O)[C@H](CO)c3ccccc3)C[C@H]1[C@@H]1O[C@@H]12 [scopolamine]
inflexion ratio (albino Swiss mice [2]): significant decrease | latency to reach SFZ (albino Swiss mice [1]): significant increase
